Measurements: US7342089B2, “Cyclic peptides for treatment for cachexia” (Palatin Technologies, Inc., priority 2002, dated 2008)
Positions of bridges follow the written chain, without caps; N, C: chain ends. Non-standard residues stand in square brackets, D forms with d. Residues, ends and D or L forms follow the SMILES beside them. 2Nal = N[C@@H](Cc1ccc2ccccc2c1)C(=O)O; d2Nal = N[C@H](Cc1ccc2ccccc2c1)C(=O)O

Legend:
hMC4-R = target: T1, hMC4-R (Homo sapiens, UniProt P32245); assay: Competitive inhibition binding assay using [I125]-NDP-α-MSH, hMC4-R; conditions: HEK-293 membranes, read-out: Ki MC4-R
T1 construct: expressed in transfected cells; host or cells: HEK-293

hMC4-R (HEK-293 cells) = target: T2, hMC4-R (HEK-293 cells) (Homo sapiens, UniProt P32245); assay: cAMP assay for agonist/antagonist status and functional antagonism, MC4-R; format: cell-based; conditions: for agonist/antagonist status as to MC4-R: cAMP assay; for Kb: functional antagonism, Schild's analysis vs NDP-α-MSH, read-out: pA2 value as to MC4-R (converted)
T2 construct: expressed in transfected cells; host or cells: HEK-293
Procedure: Confluent HEK-293 cells over-expressing MC4-R are detached by enzyme free cell suspension buffer. […] The cells are plated in a 96 well plates at a density of 0.5×10^5 cells per well and pre-incubated for 30 minutes. The cells are then challenged with the test peptides dissolved in dimethylsulfoxide (DMSO) at a concentration range of 0.05-5000 nM in a total assay volume of 200 μL for 1 hour at 37° C. The concentration of DMSO is always held at 1% in the assay mixture. […] At the end of the incubation period the cells are disrupted by the addition of 50 μL lysis buffer from the cAMP EIA kit (Amersham). Complete rupture of the cells is ensured by pipetting the cells up and down multiple times. cAMP levels in the cell lysates are measured after appropriate dilution using the EIA kit (Amersham) method. Data analysis and EC50 values are determined by using nonlinear regression analysis with the Prism Graph-Pad software. […] Peptides with a response ratio of less than 0.1 are evaluated for antagonistic activity.
Briefly, cells are pre-incubated for 30 minutes with the test peptides at concentrations between 0.5 nM and 5000 nM. […] For Schild's analysis, the interactions are studied using at least 3 concentrations of the peptides, separated by a log unit, over a full range of the agonist (0.005-5000 nM). cAMP levels is measured in the cell lysates after appropriate dilution. Nonlinear regression analysis with the Prism Graph-Pad software is used for Schild's analysis and to obtain EC50 values. pA2 values are derived from the Schild's plot.

hMC3-R = target: T3, hMC3-R (Homo sapiens, UniProt P41968); assay: Competitive inhibition binding assay using [I125]-NDP-α-MSH, hMC3-R; conditions: HEK-293 membranes, read-out: Ki MC3-R
T3 construct: expressed in transfected cells; host or cells: HEK-293

rats = assay: ICV feeding studies; format: in vivo, rat; conditions: lowest value of multiple tests, parentheses = decrease
Procedure: Change in food intake and body weight is evaluated for selected peptides. Rats with indwelling intracerebroventricular cannulas (ICV rats) are obtained from Hilltop Lab Animals, Inc. (Scottdale, Pa.). Animals are individually housed in conventional plexiglass hanging cages and maintained on a controlled 12 hour on/off light cycle. Water and powdered (LabDiet, 5P00 Prolab RMH 3000) or pelleted (Harlan Teklad 2018 18% Protein Rodent Diet) food is provided ad libitum. For 1 week before treatment, 24-hour food intake and body weight change is recorded to assess a baseline for the group during vehicle treatment. The rats are dosed ICV with vehicle or selected cyclic peptides (0.3-3 nmol). The changes in body weight and food intake for the 24 hour period after dosing are determined. The changes in body weight and food intake for the 48 hour and 72 hour periods after dosing are also measured to determine reversal of changes in body weight and food intake effects back to baseline levels.
A series of ICV feeding studies were conducted on rats. All animals were dosed on the first day with saline ICV, and given a pre-weighed food bowl with food weight recorded at 2 and 21 hours post-ICV injection. On day 2, animals were randomized based on the 21 hour food consumption, with animals eliminated due to low food consumption or food spills. […] Food weights were again recorded at 2, 4, 21 and 24 hours post-icv injection. In most instances, multiple different tests were conducted which each group containing between 8 and 12 members; the lowest value is shown below. Values are shown as percent increase (decrease) in aggregate food intake. “ND” means no test was conducted at that dose level.

hMC5-R = target: T4, hMC5-R (Homo sapiens, UniProt P33032); assay: Competitive inhibition binding assay using [I125]-NDP-α-MSH, hMC5-R; conditions: HEK-293 membranes, read-out: Ki MC5-R
T4 construct: expressed in transfected cells; host or cells: HEK-293

[1] = target: T5, MC1-R (B-16 mouse melanoma cells) (Mus musculus, UniProt Q01727); assay: cAMP assay for agonist/antagonist status, MC1-R; format: cell-based; conditions: for EC50: read-out: EC50 as to MC1-R
Procedure: Cells are incubated with the test peptides in the presence or absence of α-MSH for 1 hour at 37° C. cAMP levels in the cell lysates are measured using the EIA kit (Amersham). Data analysis and EC50 values are determined using nonlinear regression analysis with Prism Graph-Pad software.
The agonist/antagonist status with respect to MC1-R, MC4-R and MC5-R of certain peptides of the invention is determined. Antagonistic activity is determined by measuring the inhibition of α-MSH-induced or NDP-α-MSH-induced cAMP levels following exposure to the peptides as in the preceding descriptions.

hMC3-R (HEK-293 cells) = target: T6, hMC3-R (HEK-293 cells) (Homo sapiens, UniProt P41968); assay: cAMP assay for agonist/antagonist status and functional antagonism, MC3-R; format: cell-based; conditions: for agonist/antagonist status as to MC3-R: cAMP assay; for Kb: read-out: pA2 value as to MC3-R (converted)
T6 construct: expressed in transfected cells; host or cells: HEK-293
Procedure: Assay for neutral antagonist.
Experimental details are similar to the analysis for agonistic activity and are described above. Briefly, cells are pre-incubated for 30 minutes with the test peptides at concentrations between 0.5 nM and 5000 nM. […] For Schild's analysis, the interactions are studied using at least 3 concentrations of the peptides, separated by a log unit, over a full range of the agonist (0.005-5000 nM). cAMP levels is measured in the cell lysates after appropriate dilution. Nonlinear regression analysis with the Prism Graph-Pad software is used for Schild's analysis and to obtain EC50 values. pA2 values are derived from the Schild's plot.

[2] = target: T5, MC1-R (B-16 mouse melanoma cells); assay: Competitive inhibition binding assay using [I125]-NDP-α-MSH, MC1-R; conditions: B-16 mouse melanoma cell membranes
Procedure: Each assay is conducted in triplicate.

T5 sequence (Q01727 whole entry): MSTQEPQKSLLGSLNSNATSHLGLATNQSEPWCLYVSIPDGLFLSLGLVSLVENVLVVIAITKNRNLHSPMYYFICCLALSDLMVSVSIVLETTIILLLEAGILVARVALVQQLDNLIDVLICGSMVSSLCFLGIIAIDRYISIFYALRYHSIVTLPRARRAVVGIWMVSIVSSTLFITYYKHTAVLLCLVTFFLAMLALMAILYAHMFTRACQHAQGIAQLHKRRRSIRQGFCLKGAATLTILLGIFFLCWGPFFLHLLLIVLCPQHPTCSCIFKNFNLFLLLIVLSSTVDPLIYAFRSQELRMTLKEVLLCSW
T6 sequence (P41968 whole entry): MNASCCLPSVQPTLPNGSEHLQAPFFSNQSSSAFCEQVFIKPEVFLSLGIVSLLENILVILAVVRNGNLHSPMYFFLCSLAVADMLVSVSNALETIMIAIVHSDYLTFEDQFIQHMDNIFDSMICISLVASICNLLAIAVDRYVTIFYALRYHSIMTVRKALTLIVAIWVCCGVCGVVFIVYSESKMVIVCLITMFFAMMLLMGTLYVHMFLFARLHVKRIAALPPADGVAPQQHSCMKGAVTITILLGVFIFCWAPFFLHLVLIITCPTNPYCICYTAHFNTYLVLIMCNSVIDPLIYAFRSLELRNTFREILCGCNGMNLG
T3 sequence (P41968 whole entry): as above
T2 sequence (P32245 whole entry): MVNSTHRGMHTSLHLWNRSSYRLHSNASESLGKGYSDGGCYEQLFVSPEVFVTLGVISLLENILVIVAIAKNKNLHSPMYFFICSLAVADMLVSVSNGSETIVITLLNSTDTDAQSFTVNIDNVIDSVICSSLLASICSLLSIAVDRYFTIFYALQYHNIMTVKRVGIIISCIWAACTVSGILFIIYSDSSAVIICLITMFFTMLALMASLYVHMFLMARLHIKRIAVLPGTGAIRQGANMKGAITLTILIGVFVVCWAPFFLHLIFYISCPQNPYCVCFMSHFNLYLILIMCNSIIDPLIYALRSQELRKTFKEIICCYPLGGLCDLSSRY
T1 sequence (P32245 whole entry): as above
T4 sequence (P33032 whole entry): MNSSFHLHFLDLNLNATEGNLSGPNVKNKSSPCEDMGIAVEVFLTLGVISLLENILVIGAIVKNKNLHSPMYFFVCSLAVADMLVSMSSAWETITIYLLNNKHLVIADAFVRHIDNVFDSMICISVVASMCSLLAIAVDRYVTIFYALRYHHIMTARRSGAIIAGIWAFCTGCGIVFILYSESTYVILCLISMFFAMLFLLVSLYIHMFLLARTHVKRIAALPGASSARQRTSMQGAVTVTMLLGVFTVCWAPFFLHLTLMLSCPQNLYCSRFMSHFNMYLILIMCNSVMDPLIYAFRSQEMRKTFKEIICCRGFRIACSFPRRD

| Compound | Ki (hMC4-R) | agonist/antagonist status as to MC4-R (hMC4-R (HEK-293 cells)) | Kb (hMC4-R (HEK-293 cells)) | Ki (hMC3-R) | Percent Increase (Decrease) In Aggregate Food Intake After ICV Administration of Peptide Compared to Vehicle (Saline) (rats; 1 nmol) | Ki (hMC5-R) | agonist/antagonist status as to MC1-R [1] | EC50 [1] | agonist/antagonist status as to MC3-R (hMC3-R (HEK-293 cells)) | Ki [2] | Percent Increase (Decrease) In Aggregate Food Intake After ICV Administration of Peptide Compared to Vehicle (Saline) (rats; 0.3 nmol) | Kb (hMC3-R (HEK-293 cells)) | agonist/antagonist status at MC1-R ([1]; peptide at 1 μM concentration) |
| --- | --- | --- | --- | --- | --- | --- | --- | --- | --- | --- | --- | --- | --- |
| CC(=O)N[C@H]1CC(=O)NCCCC[C@@H](C(=O)O)NC(=O)[C@H](Cc2ccc3ccccc3c2)NC(=O)[C@H](CCCNC(=N)N)NC(=O)[C@@H](Cc2ccc3ccccc3c2)NC(=O)[C@H](Cc2c[nH]cn2)NC1=O [Example 15, Ac-cyclo(-Asp-His-D-Nal 2-Arg-Nal 2-Lys)-OH] (Ac-DH[d2Nal]R[2Nal]K-OH; lactam 1-6) | 2 nM | antagonist | 10 nM | 6 nM | 32% | 89 nM | partial agonist | 2150 nM | antagonist | 143 nM | – | – | – |
| CC(=O)N[C@H]1CC(=O)NCCCC[C@@H](C(=O)O)NC(=O)[C@H](Cc2ccc3ccccc3c2)NC(=O)[C@H](CCCNC(=N)N)NC(=O)[C@@H](Cc2ccc3ccccc3c2)NC(=O)[C@H](Cc2c[nH]c3ccccc23)NC1=O [Example 16, Ac-cyclo(-Asp-Trp-D-Nal 2-Arg-Nal 2-Lys)-OH] (Ac-DW[d2Nal]R[2Nal]K-OH; lactam 1-6) | 0.1 nM | antagonist | 3.55 nM | 10 nM | 4% | 17 nM | partial agonist | > 1000 nM | antagonist | 1100 nM | 0% | – | – |
| CCNC(=O)[C@@H]1CCCCNC(=O)C[C@H](NC(C)=O)C(=O)N[C@@H](Cc2c[nH]c3ccccc23)C(=O)N[C@H](Cc2ccc3ccccc3c2)C(=O)N[C@@H](CCCNC(=N)N)C(=O)N[C@@H](Cc2ccc3ccccc3c2)C(=O)N1 [Example 17, Ac-cyclo(-Asp-Trp-D-Nal 2-Arg-Nal 2-Lys)-NH—CH2—CH3] (Ac-DW[d2Nal]R[2Nal]K-NHEt; lactam 1-6) | 0.03 nM | antagonist | 1.74 nM | 1 nM | 20% | 3 nM | partial agonist | > 1000 nM | antagonist | 194 nM | 32% | 9.12 nM | – |
| CC(=O)N[C@H]1CC(=O)NCCCC[C@@H](C(=O)N(C)C)NC(=O)[C@H](Cc2ccc3ccccc3c2)NC(=O)[C@H](CCCNC(=N)N)NC(=O)[C@@H](Cc2ccc3ccccc3c2)NC(=O)[C@H](Cc2c[nH]c3ccccc23)NC1=O [Example 18, Ac-cyclo(-Asp-Trp-D-Nal 2-Arg-Nal 2-Lys)-N(CH3)2] (Ac-DW[d2Nal]R[2Nal]K-NMe2; lactam 1-6) | 0.03 nM | antagonist | 2.04 nM | 1 nM | 24% | 4 nM | inactive | – | antagonist | 107 nM | 24% | 51.3 nM | – |
| CNC(=O)[C@@H]1CCCCNC(=O)C[C@H](NC(C)=O)C(=O)N[C@@H](Cc2c[nH]c3ccccc23)C(=O)N[C@H](Cc2ccc3ccccc3c2)C(=O)N[C@@H](CCCNC(=N)N)C(=O)N[C@@H](Cc2ccc3ccccc3c2)C(=O)N1 [Example 19, Ac-cyclo(-Asp-Trp-D-Nal 2-Arg-Nal 2-Lys)-NH—CH3] (Ac-DW[d2Nal]R[2Nal]K-NHMe; lactam 1-6) | 0.06 nM | antagonist | 1.26 nM | 3 nM | 32% | 6 nM | – | – | antagonist | 643 nM | 28% | 8.51 nM | inactive |
